{
  "source": "patent US8481597B2",
  "about": "“Use of (-) (3-trihalomethylphenoxy) (4-halophenyl) acetic acid derivatives for treatment of insulin resistance, type 2 diabetes, hyperlipidemia and hyperuricemia” (Metabolex, Inc., priority 1999, dated 2013)",
  "key": {"[1]": {"system": "ZDF rats", "experiment": "Plasma glucose in ZDF rats, (−) halofenate vs (+) halofenate (Example 13)", "type": "in vivo", "settings": "50 mg/kg oral once a day for 3 days", "description": "Male 8-9 week old ZDF rats were purchased from Genetic Models, Inc. (Indianapolis, Ind.). […] Rats that had 4-hour fasting plasma glucose levels between 200 and 500 mg/dL were used. […] The gavage volume was 5 ml/kg. Blood samples were taken at 5 hours post dose on day 2 and 3."}, "[2]": {"experiment": "Pharmacokinetic study of (±) halofenate and (−) halofenate in SD rats (Example 14)", "type": "in vivo", "settings": "single oral (−) halofenate 50 mg/kg, Rats 8, 9, 11 individually, BQL <1.00 μg/mL", "description": "Male 225-250 g SD rats were purchased from Charles River. […] A catheter was placed in the left carotid artery under sodium pentobarbital (50 mg/kg i.p.) and animals were allowed to recover for 2 days before treatment. […] The gavage volume was 5 ml/kg. Blood samples were collected at 1, 2, 4, 6, 8, 12, 24, 48, 72, 96 and 120 hours post dose. The plasma samples were analyzed for each enantiomeric acid ((−) halofenic acid and (+) halofenic acid) by a chiral specific HPLC assay, since the esters are prodrugs, which are designed to convert to their respective enantiomeric acids in vivo."}},
  "data": [
    {"smiles": "CC(=O)NCCOC(=O)C(Oc1cccc(C(F)(F)F)c1)c1ccc(Cl)cc1", "note": "(single isomer, unassigned; (-)) [(−) halofenate, (−) 2-acetamidoethyl 4-chlorophenyl-(3-trifluoromethylphenoxy)acetate]", "values": [
      {"measurement": "plasma glucose concentrations compared to vehicle-treated animals, in words", "setting": "[1]", "result": "significantly reduced plasma glucose concentrations"},
      {"measurement": "Plasma concentration of (+) halofenic acid", "setting": "[2]; time 0 hour", "result": "BQL"},
      {"measurement": "Plasma concentration of (−) halofenic acid", "setting": "[2]; time 0 hour", "result": "BQL"},
      {"measurement": "Plasma concentration of (+) halofenic acid", "setting": "[2]; time 1 hour", "result": "BQL"},
      {"measurement": "Plasma concentration of (+) halofenic acid", "setting": "[2]; time 2 hours", "result": "BQL"},
      {"measurement": "Plasma concentration of (+) halofenic acid", "setting": "[2]; time 4 hours", "result": "BQL"},
      {"measurement": "Plasma concentration of (+) halofenic acid", "setting": "[2]; time 6 hours", "result": "BQL"},
      {"measurement": "Plasma concentration of (+) halofenic acid", "setting": "[2]; time 8 hours", "result": "BQL"},
      {"measurement": "Plasma concentration of (+) halofenic acid", "setting": "[2]; time 72 hours", "result": "BQL"},
      {"measurement": "Plasma concentration of (+) halofenic acid", "setting": "[2]; time 96 hours", "result": "BQL"},
      {"measurement": "Plasma concentration of (+) halofenic acid", "setting": "[2]; time 120 hours", "result": "BQL"}
    ]}
  ]
}
